Assay results published in US5753715A, “2-disubstituted cyclohexenyl and cyclohexyl antimicrobial agents” (Ortho Pharmaceutical Corporation, priority 1995, dated 1998).

Target: T1, Kinase A and SpoOF (Bacillus subtilis, UniProt P16497)
T1 sequence (P16497 1-606): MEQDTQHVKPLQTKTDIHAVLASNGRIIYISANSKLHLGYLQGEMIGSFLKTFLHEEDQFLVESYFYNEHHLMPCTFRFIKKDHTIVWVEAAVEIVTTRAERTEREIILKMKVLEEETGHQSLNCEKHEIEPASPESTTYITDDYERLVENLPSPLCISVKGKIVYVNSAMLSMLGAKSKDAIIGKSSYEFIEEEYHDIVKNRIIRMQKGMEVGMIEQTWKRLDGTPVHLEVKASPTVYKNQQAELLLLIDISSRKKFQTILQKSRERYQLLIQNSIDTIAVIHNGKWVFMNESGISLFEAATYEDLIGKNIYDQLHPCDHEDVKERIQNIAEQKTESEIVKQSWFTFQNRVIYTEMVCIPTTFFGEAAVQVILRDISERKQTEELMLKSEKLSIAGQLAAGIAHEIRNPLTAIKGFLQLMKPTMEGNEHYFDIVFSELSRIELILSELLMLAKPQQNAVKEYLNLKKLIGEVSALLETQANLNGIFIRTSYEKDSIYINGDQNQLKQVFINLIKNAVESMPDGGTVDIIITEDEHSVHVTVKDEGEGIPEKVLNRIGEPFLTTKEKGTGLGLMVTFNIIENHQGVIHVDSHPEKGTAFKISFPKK
Assay: Autophosphorylation of Kinase A and Transphosphorylation of SPoOF Assay
Assay type: biochemical
Settings: inhibition of Kinase A autophosphorylation / SpoOF transphosphorylation, [32P]ATP, gel, phosphoimager

Row | Structure (SMILES) | IC50 | IC min
1 | C1=CC(CCOc2ccc(CCNCCN3CCCC3)cc2)(Cc2ccccc2)CCC1 (centres unmarked) [Compound 1] | 210 mM | 62.5 mM
2 | NCc1ccc(OCCC2(Cc3cccc(Cl)c3)C=CCCC2)cc1 (centres unmarked) [Compound 5] | 18.5 mM | 15.6 mM
3 | N=C(N)NCc1ccc(OCCC2(Cc3cccc(Cl)c3)C=CCCC2)cc1 (centres unmarked) [Compound 6] | 35.8 mM | –
4 | NC(=O)c1ccc(OCCC2(Cc3cccc(Cl)c3)C=CCCC2)cc1 (centres unmarked) [Compound 7] | 330 mM | –
5 | CNCCCc1cnc(SCCC2(Cc3ccccc3)C=CCCC2)nc1 (centres unmarked) [Compound 8] | 92.3 mM | –
6 | COc1cc(CN)ccc1OCCC1(Cc2ccccc2)C=CCCC1 (centres unmarked) [Compound 9] | 446 mM | 250 mM
7 | CCNCCc1ccc(NCCC2(Cc3ccccc3)C=CCCC2)cc1 (centres unmarked) [Compound 10] | 257 mM | 125 mM
8 | NCCCCc1ccc(OCCC2(Cc3ccccc3)C=CCCC2)cc1 (centres unmarked) [Compound 11] | 353 mM | 125 mM
9 | O=C(O)CCc1ccc(OCCC2(c3ccc(F)cc3)C=CCCC2)cc1 (centres unmarked) [Compound 12] | 354 mM | 125 mM
10 | NCCc1ccc(OCCC2(Cc3ccccc3)CCCCC2)cc1 [Compound 13] | 39.5 mM | 7.8 mM
11 | CC(C)NCCc1ccc(OCCC2(CCCc3ccccc3)CCCCC2)cc1 [Compound 14] | – | 500 mM
12 | CNCCCc1ccc(OCCC2(CCO)C=CCCC2)cc1 (centres unmarked) [Compound 15] | 432 mM | 125 mM
13 | NCCc1ccc(OCCC2(Cc3ccc([N+](=O)[O-])cc3)CCCCC2)cc1 [Compound 16] | 43.5 mM | 15.6 mM
14 | NCCCc1ccc(OCCC2(Cc3ccccc3)C=CCCC2)cc1 (centres unmarked) [Compound 18] | 261 mM | 125 mM
15 | CNCCCc1ccc(OCCC2(Cc3ccccc3)C=CCCC2)cc1 (centres unmarked) [Compound 19] | 82.1 mM | 62.5 mM
16 | CN(C)CCCc1ccc(OCCC2(Cc3ccccc3)C=CCCC2)cc1 (centres unmarked) [Compound 20] | 122 mM | –
17 | C1=CC(CCOc2ccc(CCCNCCN3CCOCC3)cc2)(Cc2ccccc2)CCC1 (centres unmarked) [Compound 21] | 728 mM | 500 mM
18 | CC(C)C1(CCOc2ccc(CCN)cc2)C=CCCC1 (centres unmarked) [Compound 22] | 94.7 mM | 31.25 mM
19 | CC(C)C1(CCOc2ccc(CCNCCN3CCCC3)cc2)C=CCCC1 (centres unmarked) [Compound 23] | 295 mM | 125 mM
20 | OCCNCCCc1ccc(OCCC2(c3ccc(F)cc3)C=CCCC2)cc1 (centres unmarked) [Compound 25] | 200 mM | 125 mM
21 | CCCCNCCCc1ccc(OCCC2(c3ccc(F)cc3)C=CCCC2)cc1 (centres unmarked) [Compound 26] | 437 mM | 250 mM
22 | CCCNCCCc1ccc(OCCC2(c3ccc(F)cc3)C=CCCC2)cc1 (centres unmarked) [Compound 27] | 318 mM | 125 mM
23 | Fc1ccc(C2(CCOc3ccc(CCCNCc4ccccc4)cc3)C=CCCC2)cc1 (centres unmarked) [Compound 28] | – | > 1000 mM
24 | CNCCc1ccc(OCCCC2(Cc3ccccc3)C=CCCC2)cc1 (centres unmarked) [Compound 30] | 145 mM | 125 mM
25 | CNCCCc1ccc(OCCC2(CCCc3ccccc3)C=CCCC2)cc1 (centres unmarked) [Compound 31] | 91 mM | 62.5 mM
26 | CCCCC1(CCOc2ccc(CCCNC)cc2)C=CCCC1 (centres unmarked) [Compound 32] | 164 mM | 125 mM
27 | NCCc1ccc(OCCC2(Cc3ccc(Cl)cc3)C=CCCC2)cc1 (centres unmarked) [Compound 33] | 339.5 mM | 125 mM
28 | CNCCCc1ccc(OCCC2(C(C)C)C=CCCC2)cc1 (centres unmarked) [Compound 35] | 468.4 mM | 125 mM
29 | CNCCc1ccccc1OCCC1(Cc2ccccc2)C=CCCC1 (centres unmarked) [Compound 36] | – | 500 mM
30 | CNCCc1cccc(OCCC2(Cc3ccccc3)C=CCCC2)c1 (centres unmarked) [Compound 37] | 107.7 mM | 62.5 mM
